Experimental data as given in patent US9974801B2, “Methods of treating and preventing diseases and disorders of the central nervous system” (The United States of America, as represented by the …, priority 2012, dated 2018).

Columns and labels:
[1] = Skull bone permeability analysis (transcranial permeation of fluorescent probes); type: in vivo, mice; details: applied to intact skull bone as 3 mm bubble; 2P microscopy immediately after loading; FIG. 2
Method: Skull bone permeability analysis. For skull bone permeability studies, the following rhodamine-labeled dextrans were placed directly on the intact skull bone for up to 30 min: 3,000 MW (25 mM), 10,000 MW (5 mM), 40,000 MW (1 mM), and 70,000 MW (0.5 mM). SR101 (1 mM), a sulforhodamine dye, was used as a representative of 600 MW compound. Compounds were replenished as needed to prevent drying. Following the incubation period, the skull bone was quickly thinned and imaged. A 3D stack was captured to determine if the fluorescence could be found beneath the skull bone.
This example illustrates the effect of molecular weight of the compounds on the rate of transcranial permeation. To define the time and size of compounds that pass directly through the intact (non-thinned) skull, […] SR101 (600 MW) or different sized rhodamine-dextrans (25 mM 3,000 MW; 5 mM 10,000 MW; 1 mM 40,000 MW; 0.5 mM 70,000 MW) were applied to the skull bone. A 3 mm diameter bubble was left on the skull surface for the amount of time noted in minutes on the y axis of the table above. Because all compounds fluoresced, 2P microscopy was performed immediately after transcranial loading to determine if the compounds were present in the subarachnoid space.

[2] = tested on: phagocytic microglia (jellyfish morphology); assay: Phagocytic (jellyfish) microglia after meningeal compression injury, 2P microscopy; type: in vivo, heterozygous CX3CR1-GFP mice; details: p<0.05; for percentage of phagocytic (jellyfish) microglia in the imaging field: antagonist in aCSF applied to skull bone 30 min prior to injury, quantified 3 hrs post-injury, vs vehicle, FIG. 3
Method: (§1) Skull Thinning & Compression Injury. For imaging experiments, mice were anesthetized with ketamine (85 mg/kg), xylazine (13 mg/kg), and acepromazine (2 mg/kg) in PBS and maintained at a core temperature of 37° C. The skull bone over the barrel cortex was then thinned to a thickness of ˜30-40 μm as described (PMID: 20134419). For this procedure, the bone was manually thinned over a 30 minute period, and the amount of downward pressure was kept to a minimum. To induce a compression injury, the skull was thinned within 5 min to a thickness of ˜10-15 μm. Once thinned, the blunt of a surgical instrument was used to gently press the pliable skull bone downward. […] In one set of experiments, the skull bone was intentionally cracked to induce a severe injury. Imaging was performed immediately after injury.
Intravital two-photon laser scanning microscopy. Mice with a normally thinned or compressed skull bone were imaged using a Leica SP5 two-photon imaging system (Leica Microsystems, Bannockburn, Ill.) equipped with an 8000 Hz resonant scanner, a 20×/1.0 NA dipping objective, and two Mai Tai HP DeepSee Lasers (SpectraPhysics) tuned to 905, 920 or 970 nm. Fluorescence emission was separated by high efficiency custom dichroic mirrors (Semrock) and collected with a NDD4 external detector (Leica). Stacks of images were acquired using a step size of 1.0 μm to a depth of 150 μm. Time lapse movies were acquired with 1 min intervals between 3D stacks. For all imaging studies, the 20× lens was submerged directly into artificial cerebral spinal fluid (aCSF; 119 mM NaCl, 26.2 mM NaHCO3, 2.5 mm KCl, 1 mM NaH2PO4, 1.3 mM MgCl2, 1.2 mM CaCl2, 0.4% glucose, pH 7.4) placed atop the thinned skull.
Purinergic receptor, connexin hemichannel, and ROS antagonism. Prior to skull thinning, antagonists diluted in aCSF were applied directly to the skull bone, and vehicle was simultaneously applied to the opposite hemisphere to serve as a control. […] Vehicle and purinergic receptor antagonists were applied as a 3 mm diameter bubble on the skull surface and replenished as needed over a 30 min incubation period to prevent drying. This allowed the antagonists to continuously pass through the skull bone. Following the 30 min incubation, the skull was dried and then thinned to induce a compression injury over both hemispheres. Imaging was initiated immediately after injury. For most studies, the skull bone pre-incubated with antagonists was imaged continuously for 3-10 hrs, after which a 3D stack was captured from both the vehicle and antagonist treated areas for quantitative purposes. […] A similar study was conducted using 10 mM CBX.
Image Analysis. All quantitative analyses and processing of 3D/4D imaging data were performed using Imaris 7.0 software (Bitplane). Supplemental movies were constructed and annotated using Adobe Premiere Pro CS4. Microglia “honeycomb” reactions were quantified from 434×434×150 μm (xyz) 3D image stacks obtained at selected time points in CX3CR1^gfp/+ mice. This was accomplished by measuring the total length of microglial processes in contact with the glial limitans. […] Afterward, 10 microglia per mouse were randomly selected for quantification of process length. Only cells with all of their processes in the field of view and no more than 50 μm beneath the skull bone were quantified. Microglial processes that were touching (flat against) the glial limitans were labeled and measured using the Imaris “filaments” tool. […]

[3] = tested on: microglia processes associated with the glial limitans; assay: Length of microglial processes in contact with the glial limitans after meningeal compression injury; type: in vivo, mice; details: for length of microglial processes in contact with the glial limitans: transcranial administration of antagonist before injury, three hours following injury, p<0.05, FIG. 4
Method: as §1
(§2) Intravital two-photon laser scanning microscopy. […] Fluorescence emission was separated by high efficiency custom dichroic mirrors (Semrock) and collected with a NDD4 external detector (Leica). […]
(§3) Purinergic receptor, connexin hemichannel, and ROS antagonism. […] For most studies, the skull bone pre-incubated with antagonists was imaged continuously for 3-10 hrs, after which a 3D stack was captured from both the vehicle and antagonist treated areas for quantitative purposes. […]
Image Analysis. All quantitative analyses and processing of 3D/4D imaging data were performed using Imaris 7.0 software (Bitplane). […] Microglia “honeycomb” reactions were quantified from 434×434×150 μm (xyz) 3D image stacks obtained at selected time points in CX3CR1^gfp/+ mice. […] Afterward, 10 microglia per mouse were randomly selected for quantification of process length. Only cells with all of their processes in the field of view and no more than 50 μm beneath the skull bone were quantified. Microglial processes that were touching (flat against) the glial limitans were labeled and measured using the Imaris “filaments” tool. […]

[4] = tested on: neutrophils; assay: Neutrophil recruitment following meningeal compression injury; type: in vivo, LysM-GFP transgenic reporter mouse; details: p<0.05
Method: Skull Thinning & Compression Injury. For imaging experiments, mice were anesthetized with ketamine (85 mg/kg), xylazine (13 mg/kg), and acepromazine (2 mg/kg) in PBS and maintained at a core temperature of 37° C. The skull bone over the barrel cortex was then thinned to a thickness of ˜30-40 μm as described (PMID: 20134419). For this procedure, the bone was manually thinned over a 30 minute period, and the amount of downward pressure was kept to a minimum. To induce a compression injury, the skull was thinned within 5 min to a thickness of ˜10-15 μm. Once thinned, the blunt of a surgical instrument was used to gently press the pliable skull bone downward. […]
as §2, §3
Image Analysis. All quantitative analyses and processing of 3D/4D imaging data were performed using Imaris 7.0 software (Bitplane). […] Afterward, 10 microglia per mouse were randomly selected for quantification of process length. […]

| Compound | percentage of phagocytic (jellyfish) microglia in the imaging field [2] | length of microglial processes in contact with the glial limitans [3] | other results |
| --- | --- | --- | --- |
| O=S(=O)([O-])c1cc(S(=O)(=O)O)ccc1C1=c2cc3c4c(c2Oc2c1cc1c5c2CCCN5CCC1)CCC[N+]=4CCC3 [SR101] |  |  | rate of passage through the skull into the subarachnoid space [1]: pass through the skull more quickly than larger compounds |
| S=C=Nc1cccc(NC(=S)NCCCCNC(=S)Nc2cccc(N=C=S)c2)c1 [MRS2578] | significantly reduced |  |  |
| N[C@@H](CCC(=O)N[C@@H](CS)C(=O)NCC(=O)O)C(=O)O [glutathione] |  |  | formation of phagocytic (jellyfish) microglia following injury ([2]; pretreatment with 100 mM, transcranial, FIG. 9): eliminated the formation; microglia extending their processes and contacting the glial limitans ([3]; pretreatment with 100 mM, transcranial, FIG. 10): completely prevented; recruitment of neutrophils following compression injury ([4]; pretreatment with 100 mM, transcranial, FIG. 8): significantly reduced |
| CSc1nc(N)c2ncn([C@@H]3O[C@H](COP(=O)(O)O)[C@@H](O)[C@H]3O)c2n1 [MeSAMP] | significantly reduced | significantly reduced |  |
| Nc1ncnc2c1ncn2[C@@H](C=O)O[C@@H](C=O)COP(=O)(O)OP(=O)(O)OP(=O)(O)O [oxidized ATP] | not |  | neutrophil recruitment to the injury site ([4]; transcranial P2X7 antagonist applied to skull before injury, FIG. 5): completely blocked |
| trinitrophenyl-ATP hydrate [TNP-ATP hydrate] | significantly reduced | significantly reduced |  |
